From ChEMBL document CHEMBL1133984, “Synthesis, topoisomerase I inhibition and antitumor cytotoxicity of 2,2':6',2"-, 2,2':6',3"- and 2,2':6',4"-terpyridine derivatives” (2001) come the findings set out here.

Molecules are shown by their SMILES. In brackets after ≈: the same amount, converted by molar mass.

Common to all, as to format: functional
Holding throughout (conditions): Homo sapiens

For one assay, the system named is A498. As to the kind of experiment: Antitumor cytotoxic activity against A-498 cell line was determined.
The subject of a further assay is A549. As to the kind of experiment: Antitumor cytotoxic activity against A-549 cell line was determined.
A further assay deals with HCT-15. Put plainly: Antitumor cytotoxic activity against HCT-15 cell line was determined.
Another assay has as its system HT-29. Put plainly: Antitumor cytotoxic activity against HT-29 cell line was determined.
For a further assay, the system named is PC-3. Put plainly: Antitumor cytotoxic activity against PC-3 cell line was determined.
For a further assay, the system named is RPTEC. Put plainly: Antitumor cytotoxic activity against RPTEC cell line was determined.
The test system of a further assay is SK-OV-3. Put plainly: Antitumor cytotoxic activity against SK-OV-3 cell line was determined.
A further assay has as its system SK-MEL-2. As to the kind of experiment: Antitumor cytotoxic activity against SK-MEL-2 cell line was determined.

As for `c1ccc(-c2cc(-c3ccccn3)nc(-c3ccccn3)c2)cc1`, the GI50 came to 2.5 ng/mL (≈ 0.00808 µM) with A498; 560 ng/mL (≈ 1.81 µM) in the assay on A549; 370 ng/mL (≈ 1.2 µM) with HCT-15; 1.4 ng/mL (≈ 0.00453 µM) with HT-29; 17 ng/mL (≈ 0.055 µM) in the assay with PC-3; 27 ng/mL (≈ 0.0873 µM) in the assay on RPTEC. Further, the GI50 stood at 120 ng/mL (≈ 0.388 µM) in the assay on SK-OV-3 and 7500 ng/mL (≈ 24.2 µM) in the assay with SK-MEL-2.
Consider `c1ccc(-c2cc(-c3ccco3)cc(-c3ccccn3)n2)nc1`, for which the GI50 came out at 0.064 ng/mL (≈ 0.000214 µM) in the assay on A498; 220 ng/mL (≈ 0.735 µM) with A549; 100 ng/mL (≈ 0.334 µM) with HCT-15; 2.4 ng/mL (≈ 0.00802 µM) in the assay with HT-29; 2.5 ng/mL (≈ 0.00835 µM) in the assay on PC-3; 4.1 ng/mL (≈ 0.0137 µM) with RPTEC. Besides, the figures for the GI50 in the assay on SK-OV-3 and in the assay on SK-MEL-2 were 130 ng/mL (≈ 0.434 µM) and 9900 ng/mL (≈ 33.1 µM), respectively.
`c1ccc(-c2cc(-c3ccsc3)cc(-c3ccccn3)n2)nc1`: the GI50 in the assay on A498 came to 0.097 ng/mL (≈ 0.000308 µM); with A549, 620 ng/mL (≈ 1.97 µM); in the assay on HCT-15, 290 ng/mL (≈ 0.919 µM); in the assay on HT-29, 2.7 ng/mL (≈ 0.00856 µM); with PC-3, 1.7 ng/mL (≈ 0.00539 µM); with RPTEC, 4.7 ng/mL (≈ 0.0149 µM). In addition, the GI50 worked out at 100 ng/mL (≈ 0.317 µM) in the assay on SK-OV-3 and 890 ng/mL (≈ 2.82 µM) in the assay with SK-MEL-2.
In the case of `c1ccc(-c2cc(-c3cccs3)cc(-c3cccnc3)n2)nc1`, the GI50 in the assay on A498 came to 2.9 ng/mL (≈ 0.00919 µM); with A549, 78900 ng/mL (≈ 250 µM); with HCT-15 it was 56100 ng/mL (≈ 178 µM); in the assay on HT-29 it was 190 ng/mL (≈ 0.602 µM); with PC-3, 31 ng/mL (≈ 0.0983 µM); with RPTEC, 56 ng/mL (≈ 0.178 µM). Besides, the values for the GI50 in the assay with SK-OV-3 and in the assay with SK-MEL-2 were 52000 ng/mL (≈ 165 µM) and 77700 ng/mL (≈ 246 µM), respectively.
Regarding `c1ccc(-c2cc(-c3cccs3)cc(-c3ccncc3)n2)nc1`, the GI50 came to 840 ng/mL (≈ 2.66 µM) in the assay with A498; 36200 ng/mL (≈ 115 µM) in the assay with A549; 15100 ng/mL (≈ 47.9 µM) in the assay on HCT-15; 520 ng/mL (≈ 1.65 µM) in the assay on HT-29; 220 ng/mL (≈ 0.698 µM) with PC-3; 650 ng/mL (≈ 2.06 µM) in the assay with RPTEC. The GI50 was 48300 ng/mL (≈ 153 µM) in the assay with SK-OV-3 and 35200 ng/mL (≈ 112 µM) with SK-MEL-2.
As for `c1ccc(-c2cc(-c3cccnc3)nc(-c3ccccn3)c2)cc1`, the GI50 in the assay with A498 was determined as 74 ng/mL (≈ 0.239 µM); with A549, 44800 ng/mL (≈ 145 µM); in the assay with HCT-15, 40900 ng/mL (≈ 132 µM); in the assay on HT-29 it was 330 ng/mL (≈ 1.07 µM); in the assay with PC-3, 280 ng/mL (≈ 0.905 µM); in the assay on RPTEC it was 360 ng/mL (≈ 1.16 µM). In addition, the GI50 with SK-OV-3 worked out at 49600 ng/mL (≈ 160 µM); in the assay with SK-MEL-2, 89200 ng/mL (≈ 288 µM).
Turning to `c1ccc(-c2cc(-c3ccsc3)cc(-c3cccnc3)n2)nc1`, the GI50 in the assay on A498 is 640 ng/mL (≈ 2.03 µM); with A549 it was greater than 100000 ng/mL; with HCT-15 it was greater than 100000 ng/mL; in the assay with HT-29, 360 ng/mL (≈ 1.14 µM); with PC-3, 54 ng/mL (≈ 0.171 µM); in the assay with RPTEC, 310 ng/mL (≈ 0.983 µM). In addition, the GI50 in the assay on SK-OV-3 and with SK-MEL-2 was greater than 100000 ng/mL throughout.
Turning to `c1ccc(-c2cc(-c3ccoc3)cc(-c3ccccn3)n2)nc1`, the GI50 in the assay on A498 worked out at 0.032 ng/mL (≈ 0.000107 µM); in the assay on A549 it was 80 ng/mL (≈ 0.267 µM); in the assay with HCT-15, 60 ng/mL (≈ 0.2 µM); in the assay with HT-29 it was 2.6 ng/mL (≈ 0.00869 µM); in the assay on PC-3 it was 4.4 ng/mL (≈ 0.0147 µM); in the assay on RPTEC, 5.8 ng/mL (≈ 0.0194 µM). Further, the GI50 with SK-OV-3 stood at 600 ng/mL (≈ 2 µM); in the assay with SK-MEL-2, 330 ng/mL (≈ 1.1 µM).
As to `COc1cccc2c1C(=O)c1c(O)c3c(c(O)c1C2=O)C[C@@](O)(C(=O)CO)C[C@@H]3O[C@H]1C[C@H](N)[C@H](O)[C@H](C)O1` [DOXORUBICIN], the GI50 turned out to be 6.4 ng/mL (≈ 0.0118 µM) with A498; 92 ng/mL (≈ 0.169 µM) in the assay with A549; 71 ng/mL (≈ 0.131 µM) in the assay with HCT-15; 4.6 ng/mL (≈ 0.00846 µM) with HT-29; 29 ng/mL (≈ 0.0534 µM) in the assay on PC-3; 72 ng/mL (≈ 0.132 µM) with RPTEC. In addition, the GI50 with SK-OV-3 is 73 ng/mL (≈ 0.134 µM); with SK-MEL-2 it was 59 ng/mL (≈ 0.109 µM).
For the molecule `c1ccc(-c2cccc(-c3ccccn3)n2)nc1` [TERPYRIDINE], the GI50 in the assay with A498 stood at 0.097 ng/mL (≈ 0.000416 µM); in the assay with A549, 90 ng/mL (≈ 0.386 µM); with HCT-15, 71 ng/mL (≈ 0.304 µM); in the assay with HT-29, 2.6 ng/mL (≈ 0.0111 µM); in the assay on PC-3, 0.73 ng/mL (≈ 0.00313 µM); in the assay with RPTEC, 14 ng/mL (≈ 0.06 µM). The GI50 in the assay with SK-OV-3 was 72 ng/mL (≈ 0.309 µM); in the assay with SK-MEL-2, 100 ng/mL (≈ 0.429 µM).

The term GI50 denotes the concentration giving 50% growth inhibition. A high value points to less potent growth inhibition.
